Experimental data: patent publication US20070128217A1 (priority 2003, published 2007)

Assays:
[1] = tested on: rabbit serum obtained by immunizing a rabbit with the SARS-CoV strain Frankfurt 1; type: binding; parameters: Binding of a rabbit serum to linear peptides / Binding of a rabbit serum to looped peptides / Rabbit serum linear peptides / Rabbit serum looped peptides / Binding of a rabbit serum to linear peptides of protein N of SARS-CoV Urbani (Rabbit serum linear peptides) / Binding of a rabbit serum to looped/cyclic peptides of protein N of SARS-CoV Urbani (Rabbit serum looped peptides): unit not given here
[2] = tested on: antibodies in sera from SARS patients (sera 1a, 1b, 2, 6, 37, 62, London, SARS-yellow, SARS-green); type: binding, human; parameters: Binding of serum 6 to linear peptides of protein X1 of SARS-CoV Urbani / Binding of serum 37 to linear peptides of protein X1 of SARS-CoV Urbani / Binding of serum 6 to looped/cyclic peptide (PEPSCAN-ELISA) / Binding of serum 37 to looped/cyclic peptide (PEPSCAN-ELISA) / Binding of serum 37 to looped/cyclic peptides of protein X1 of SARS-CoV Urbani / Binding of serum 6 to linear peptides of protein X2 / Binding of serum 37 to linear peptides of protein X2 / Binding of serum 37 to looped/cyclic peptides of protein X2 of SARS-CoV Urbani / Binding of serum 6 to linear peptides of protein M of SARS-CoV Urbani / Binding of serum 37 to linear peptides of protein M of SARS-CoV Urbani / Binding of serum 6 to looped/cyclic peptides of protein M of SARS-CoV Urbani / Binding of serum 37 to looped/cyclic peptides of protein M of SARS-CoV Urbani / Binding of serum 6 to linear peptides of protein X3 of SARS-CoV Urbani / Binding of serum 37 to linear peptides of protein X3 of SARS-CoV Urbani / Binding of serum 37 to looped/cyclic peptides of protein X3 of SARS-CoV Urbani / Binding of serum 6 to linear peptides of protein X4 of SARS-CoV Urbani / Binding of serum 37 to linear peptides of protein X4 of SARS-CoV Urbani / Binding of serum 37 to looped/cyclic peptides of protein X4 of SARS-CoV Urbani / Binding of serum 6 to linear peptides of protein X5 of SARS-CoV Urbani / Binding of serum 37 to linear peptides of protein X5 of SARS-CoV Urbani / Binding of serum 37 to looped/cyclic peptides of protein X5 of SARS-CoV Urbani / Binding of serum 6 to linear peptides of protein N of SARS-CoV Urbani / Binding of serum 37 to linear peptides of protein N of SARS-CoV Urbani / Binding of serum 6 to linear peptide (PEPSCAN-ELISA) / Binding of serum 1a to looped/cyclic peptides of protein N of SARS-CoV Urbani / Binding of serum 1b to looped/cyclic peptides of protein N of SARS-CoV Urbani / Binding of serum 2 to looped/cyclic peptides of protein N of SARS-CoV Urbani / Binding of serum 6 to looped/cyclic peptides of protein N of SARS-CoV Urbani / Binding of serum 37 to looped/cyclic peptides of protein N of SARS-CoV Urbani / Binding of serum 62 to looped/cyclic peptides of protein N of SARS-CoV Urbani / Binding of serum London to looped/cyclic peptides of protein N of SARS-CoV Urbani / Binding of serum SARS-green to looped/cyclic peptides of protein N of SARS-CoV Urbani: unit not given here
[3] = tested on: control sera (pooled serum of ten healthy LUMC hospital workers; commercial negative donor pooled serum from the Dutch bloodbank); type: binding, human; parameters: Binding of Control serum LUMC to linear peptides / Binding of Control serum Blood-bank to linear peptides / Binding of Control serum LUMC to looped peptides / Binding of Control Serum Blood-Bank to Looped peptides / Binding of Control serum LUMC to linear peptides of the protein M of SARS-CoV Urbani / Binding of Control serum Blood-bank to linear peptides of the protein M of SARS-CoV Urbani / Binding of Control serum LUMC to looped peptides of the protein M of SARS-CoV Urbani / Binding of Control Serum Blood-Bank to Looped peptides of the protein M of SARS-CoV Urbani: unit not given here

TPNVTINCQDPAGGA
Rabbit serum linear peptides [1]: 0.0 | Rabbit serum looped peptides [1]: 0.1 | Binding of serum 1a to linear peptides of protein X5 of SARS-CoV Urbani [2]: 0.8 | Binding of serum 1a to looped/cyclic peptides of protein X5 of SARS-CoV Urbani [2]: 0.4 | Binding of serum 1b to linear peptides of protein X5 of SARS-CoV Urbani [2]: 0.4 | Binding of serum 2 to linear peptides of protein X5 of SARS-CoV Urbani [2]: 0.4 | Binding of serum 2 to looped/cyclic peptides of protein X5 of SARS-CoV Urbani [2]: 0.3 | Binding of serum 6 to linear peptides of protein X5 of SARS-CoV Urbani [2]: 0.1 | Binding of serum 6 to looped/cyclic peptides of protein X5 of SARS-CoV Urbani [2]: 0.1 | Binding of serum 37 to linear peptides of protein X5 of SARS-CoV Urbani [2]: 0.8 | Binding of serum 37 to looped/cyclic peptides of protein X5 of SARS-CoV Urbani [2]: 0.4 | Binding of serum 62 to linear peptides of protein X5 of SARS-CoV Urbani [2]: 0.5 | Binding of serum 62 to looped/cyclic peptides of protein X5 of SARS-CoV Urbani [2]: 0.2 | Binding of serum London to linear peptides of protein X5 of SARS-CoV Urbani [2]: 0.6 | Binding of serum London to looped/cyclic peptides of protein X5 of SARS-CoV Urbani [2]: 0.1 | Binding of serum SARS-green to linear peptides of protein X5 of SARS-CoV Urbani [2]: 0.4 | Binding of serum SARS-green to looped/cyclic peptides of protein X5 of SARS-CoV Urbani [2]: 0.2 | Binding of serum SARS-yellow to linear peptides of protein X5 of SARS-CoV Urbani [2]: 0.0 | Binding of serum SARS-yellow to looped/cyclic peptides of protein X5 of SARS-CoV Urbani [2]: 0.2 | Binding of Control Serum Blood-Bank to Looped peptides [3]: 0.3 | Binding of Control serum Blood-bank to linear peptides [3]: 0.6 | Binding of Control serum LUMC to linear peptides [3]: 0.5 | Binding of Control serum LUMC to looped peptides [3]: 0.2

YSNRNRFLYIIKLVF
Rabbit serum linear peptides [1]: 0.4 | Rabbit serum looped peptides [1]: 0.5 | Binding of serum 1a to linear peptides of protein M of SARS-CoV Urbani [2]: 0.7 | Binding of serum 1b to linear peptides of protein M of SARS-CoV Urbani [2]: 0.5 | Binding of serum 2 to linear peptides of protein M of SARS-CoV Urbani [2]: 0.6 | Binding of serum 6 to linear peptides of protein M of SARS-CoV Urbani [2]: 0.3 | Binding of serum 37 to linear peptides of protein M of SARS-CoV Urbani [2]: 0.7 | Binding of serum 62 to linear peptides of protein M of SARS-CoV Urbani [2]: 0.7 | Binding of serum London to linear peptides of protein M of SARS-CoV Urbani [2]: 0.3 | Binding of serum SARS-green to linear peptides of protein M of SARS-CoV Urbani [2]: 0.3 | Binding of serum SARS-yellow to linear peptides of protein M of SARS-CoV Urbani [2]: 0.1 | Recognition of the peptide by sera of SARS-CoV infected individuals, and form (linear, looped/cyclic) in which it is recognized [2]: recognized in looped/cyclic form | Binding of Control Serum Blood-Bank to Looped peptides of the protein M of SARS-CoV Urbani [3]: 0.6 | Binding of Control serum Blood-bank to linear peptides of the protein M of SARS-CoV Urbani [3]: 0.7 | Binding of Control serum LUMC to linear peptides of the protein M of SARS-CoV Urbani [3]: 0.4 | Binding of Control serum LUMC to looped peptides of the protein M of SARS-CoV Urbani [3]: 0.9

GMEAQFLYLYALIYF
Binding of a rabbit serum to linear peptides [1]: 0.1 | Binding of a rabbit serum to looped peptides [1]: 0.6 | Binding of serum 1a to linear peptides of protein X1 of SARS-CoV Urbani [2]: 0.8 | Binding of serum 1a to looped/cyclic peptide (PEPSCAN-ELISA) [2]: 0.6 | Binding of serum 1b to linear peptides of protein X1 of SARS-CoV Urbani [2]: 0.6 | Binding of serum 1b to looped/cyclic peptide (PEPSCAN-ELISA) [2]: 0.4 | Binding of serum 2 to linear peptides of protein X1 of SARS-CoV Urbani [2]: 0.6 | Binding of serum 2 to looped/cyclic peptide (PEPSCAN-ELISA) [2]: 0.5 | Binding of serum 6 to linear peptides of protein X1 of SARS-CoV Urbani [2]: 0.5 | Binding of serum 6 to looped/cyclic peptide (PEPSCAN-ELISA) [2]: 0.3 | Binding of serum 37 to linear peptides of protein X1 of SARS-CoV Urbani [2]: 0.5 | Binding of serum 37 to looped/cyclic peptide (PEPSCAN-ELISA) [2]: 0.4 | Binding of serum 62 to linear peptides of protein X1 of SARS-CoV Urbani [2]: 0.4 | Binding of serum 62 to looped/cyclic peptide (PEPSCAN-ELISA) [2]: 0.5 | Binding of serum London to linear peptides of protein X1 of SARS-CoV Urbani [2]: 0.2 | Binding of serum London to looped/cyclic peptide (PEPSCAN-ELISA) [2]: 0.2 | Binding of serum SARS-green to linear peptides of protein X1 of SARS-CoV Urbani [2]: 0.1 | Binding of serum SARS-green to looped/cyclic peptide (PEPSCAN-ELISA) [2]: 0.3 | Binding of serum SARS-yellow to linear peptides of protein X1 of SARS-CoV Urbani [2]: 0.3 | Binding of serum SARS-yellow to looped/cyclic peptide (PEPSCAN-ELISA) [2]: 0.4 | Binding of Control Serum Blood-Bank to Looped peptides [3]: 0.5 | Binding of Control serum Blood-bank to linear peptides [3]: 0.4 | Binding of Control serum LUMC to linear peptides [3]: 0.6 | Binding of Control serum LUMC to looped peptides [3]: 0.8
